Measured values published in US8637574B2, “Salts of 3-pentylphenylacetic acid and pharmaceutical uses thereof” (priority 2009, dated 2014).
Where a name gives a salt, the structure may show the parent alone.

What was measured:
[1] = tested on: ⅚ nephrectomized (Nx) rat model; assay: Kidney protection in ⅚ nephrectomized rat model (GFR, creatinine clearance); type: in vivo; settings: Nx rats over treatment period; 50% deterioration in Nx control rats (FIG. 5)
Description: Male 6 week-old Wistar rats were subjected to ⅚ nephrectomy or sham operations. Under fluothane anesthesia, renal ablation was achieved by removing two-thirds of the left kidney followed by a right unilateral nephrectomy 7 days later. Sham rats underwent exposition of the kidneys and removal of the perirenal fat. Twenty-one days after the first operation, rats were randomized in the study by their reduced glomerular filtration rate (GFR) of creatinine indicating a dysfunction of the kidney. Animals that underwent the sham operation were given vehicle (saline) and were used as controls. Nx animals were divided in groups receiving the vehicle or Compound I. Saline or Compound I was given by gastric gavage once daily up to the sacrifice. GFR was measured every three weeks in order to assess the severity of this end-stage renal disease model. Rats were sacrificed at day 190.

[2] = tested on: doxorubicin-induced nephrotoxicity model; assay: Doxorubicin-induced nephrotoxicity model (serum albumin, serum creatinine, kidney histology); type: in vivo, mice
Protocol: C57BI/6 mice (6-10 week-old) were treated with Compound I prophylacticly from day −3 to day 10 or treated therapeutically from day 1 to 10. Nephrotoxicity was induced by an intravenous injection of 10 mg/kg of doxorubicin at day 0. Serum albumin and creatinine were monitored at days 4, 7, 9 and 11.

[3] = Physical properties of the salt and the free acid (hygroscopicity, water solubility); type: physicochemical
[4] = tested on: RAW264.7 (macrophage-like) cells; assay: Nitric oxide production in LPS/interferon-stimulated RAW264.7 cells (Griess reagent); type: cell-based; settings: 1 μg/ml LPS and 0.5 ng/ml interferon, 16 hours, dose dependent
Protocol: The effect of Compound I on NO production was undertaken in RAW264.7 (macrophage-like) cells. RAW264.7 cells were cultured with 1 μg/ml of LPS and 0.5 ng/ml of interferon in presence or absence of the compound for 16 hours in a humidified atmosphere of 95% air-5% carbon dioxide at 37° C. Nitric oxide measurement in the culture medium was measured using the Griess reagent after an incubation of 30 minutes at room temperature. The absorbance at 548 nm was read and compared with standard solutions of NaNO2. Cell viability was assessed with the addition of 50 μl of […]. After an incubation of 4 hours, the medium was removed and 150 μl of DMSO was added to dissolve the crystals. The optical density of each sample was read at 570 nm against a blank prepared from cell-free wells.

[5] = tested on: PGE2; assay: LPS-induced inflammation in the rat air-pouch model (PGE2 in pouch exudates by ELISA); type: in vivo, rats; settings: two hours after administration of LPS (FIG. 3)
Description: LPS-induced inflammation in the rat air-pouch model is believed to mimic the pathological process occurring in joint diseases such as arthritis. This is because the connective tissues formed along the air pouch are similar to those found in chronic joint diseases. LPS-induced inflammation and chronic joint diseases share other features, including markedly elevated PGE2, neutrophil infiltration, cytokine formation, and tissue damage. An air cavity was produced at day −6 by subcutaneous injection of 20 ml of sterile air into the intrascapular area of the back of male Lewis rats (175-200 g). An additional 10 ml of air was injected into the cavity at day −3 to keep the space open. At day 0, Compound I was administered intravenously and one hour later lipopolysaccharide (LPS: 2.5 ml, 2 μg/ml in PBS) was injected into the pouch to produce an inflammatory reaction. Two hours after treatment with LPS, animals were euthanized by CO2 asphyxiation and 5 ml of PBS/heparin (10 U/ml)/indomethacin (36 μg/ml) was injected into the pouch. The pouch fluid was collected and PGE2 was determined in the pouch exudates by ELISA.

## CCCCCc1cccc(CC(=O)O)c1 [Compound I, sodium salt of 3-pentylphenylacetic acid]
[1]
  improvement of GFR compared to the initial GFR (before treatment) at day 21: 50%
[2]; prophylactic (pre-doxorubicin) and therapeutic (post-doxorubicin) treatments, mice (FIG. 9)
  kidney lesions at the tubular level induced by doxorubicin (histological score): reduce the kidney lesions
[2]; prophylactic or therapeutic treatment, mice (FIG. 10)
  protection of kidney against doxorubicin toxicity (histological micrographs): protects kidney against doxorubicin toxicity
[2]; prophylactic treatment day −3 to day 10, oral, mice (FIG. 7)
  decrease of serum albumin induced by doxorubicin: inhibits
[2]; prophylactic treatment day −3 to day 10, oral, mice (FIG. 8)
  increase of serum creatinine induced by doxorubicin: inhibits
[2]; therapeutic treatment day 1 to 10, oral, mice (FIG. 8)
  increase of serum creatinine level induced by doxorubicin: inhibits
[3]
  hygroscopicity: not hygroscopic
  water solubility: very water soluble
[4]
  inhibition of NO production: about 50%

## COc1cccc2c1C(=O)c1c(O)c3c(c(O)c1C2=O)C[C@@](O)(C(=O)CO)C[C@@H]3O[C@H]1C[C@H](N)[C@H](O)[C@H](C)O1 [Doxorubicin, doxorubicin, reference compound]
[2]; doxorubicin 10 mg/kg i.v. day 0, mice, day 7 and 11
  kidney lesions induced by doxorubicin alone (histological score): significant kidney lesions

## COc1ccc2c(c1)c(CC(=O)O)c(C)n2C(=O)c1ccc(Cl)cc1 [indomethacin]
[5]
  inhibition of PGE2: inhibition
